Measured values from PubChem BioAssay (NCI).
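Each compound was tested at five concentrations against cells in 96-well plates for 48 hours. TGI: concentration producing complete growth inhibition.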

Tests used:
Assay in all cases: NCI-60 cell line screen, 48 h
786-0 renal = test system: 786-0 renal
A498 renal = test system: A498 renal
A549 NSCLC = test system: A549 NSCLC
ACHN renal = test system: ACHN renal
BT-549 breast = test system: BT-549 breast
CAKI-1 renal = test system: CAKI-1 renal
CCRF-CEM leukemia = test system: CCRF-CEM leukemia
COLO 205 colon = test system: COLO 205 colon
DU-145 prostate = test system: DU-145 prostate
EKVX NSCLC = test system: EKVX NSCLC
HCC-2998 colon = test system: HCC-2998 colon
HCT-116 colon = test system: HCT-116 colon
HCT-15 colon = test system: HCT-15 colon
HL-60(TB) leukemia = test system: HL-60(TB) leukemia
HOP-62 NSCLC = test system: HOP-62 NSCLC
HOP-92 NSCLC = test system: HOP-92 NSCLC
HS 578T breast = test system: HS 578T breast
HT29 colon = test system: HT29 colon
IGROV1 ovarian = test system: IGROV1 ovarian
K-562 leukemia = test system: K-562 leukemia
KM12 colon = test system: KM12 colon
LOX IMVI melanoma = test system: LOX IMVI melanoma
M14 melanoma = test system: M14 melanoma
MALME-3M melanoma = test system: MALME-3M melanoma
MCF7 breast = test system: MCF7 breast
MDA-MB-231 breast = test system: MDA-MB-231 breast
MDA-MB-435 = test system: MDA-MB-435
MDA-N = test system: MDA-N
MOLT-4 leukemia = test system: MOLT-4 leukemia
NCI-H226 lung = test system: NCI-H226 lung
NCI-H23 lung = test system: NCI-H23 lung
NCI-H460 lung = test system: NCI-H460 lung
NCI-H522 lung = test system: NCI-H522 lung
NCI/ADR-RES ovarian = test system: NCI/ADR-RES ovarian
OVCAR-3 ovarian = test system: OVCAR-3 ovarian
OVCAR-4 ovarian = test system: OVCAR-4 ovarian
OVCAR-5 ovarian = test system: OVCAR-5 ovarian
OVCAR-8 ovarian = test system: OVCAR-8 ovarian
PC-3 prostate = test system: PC-3 prostate
RPMI-8226 leukemia = test system: RPMI-8226 leukemia
RXF 393 renal = test system: RXF 393 renal
SF-268 CNS = test system: SF-268 CNS
SF-295 CNS = test system: SF-295 CNS
SF-539 CNS = test system: SF-539 CNS
SK-MEL-2 melanoma = test system: SK-MEL-2 melanoma
SK-MEL-28 melanoma = test system: SK-MEL-28 melanoma
SK-MEL-5 melanoma = test system: SK-MEL-5 melanoma
SK-OV-3 ovarian = test system: SK-OV-3 ovarian
SN12C renal = test system: SN12C renal
SNB-19 CNS = test system: SNB-19 CNS
SNB-75 CNS = test system: SNB-75 CNS
SR leukemia = test system: SR leukemia
SW-620 colon = test system: SW-620 colon
T-47D breast = test system: T-47D breast
TK-10 renal = test system: TK-10 renal
U251 CNS = test system: U251 CNS
UACC-257 melanoma = test system: UACC-257 melanoma
UACC-62 melanoma = test system: UACC-62 melanoma
UO-31 renal = test system: UO-31 renal

## CCN(CC)c1ccc(/C=C(\C#N)c2nc(N)nc(N3N=C(C)CC3(C)C)n2)cc1
786-0 renal
  TGI: 26.8 µM
A498 renal
  TGI: 35.2 µM
A549 NSCLC
  TGI: 32.3 µM
ACHN renal
  TGI: 27.9 µM
BT-549 breast
  TGI: > 100 µM
CAKI-1 renal
  TGI: 28.4 µM
CCRF-CEM leukemia
  TGI: > 100 µM
COLO 205 colon
  TGI: > 100 µM
DU-145 prostate
  TGI: 29.3 µM
EKVX NSCLC
  TGI: > 76.2 µM
HCC-2998 colon
  TGI: 79.1 µM
HCT-116 colon
  TGI: 34.1 µM
HCT-15 colon
  TGI: > 100 µM
HL-60(TB) leukemia
  TGI: > 100 µM
HOP-62 NSCLC
  TGI: 23.6 µM
HOP-92 NSCLC
  TGI: 22.4 µM
HS 578T breast
  TGI: 11.4 µM
HT29 colon
  TGI: > 49.2 µM
IGROV1 ovarian
  TGI: 34.2 µM
K-562 leukemia
  TGI: > 68.7 µM
KM12 colon
  TGI: > 100 µM
LOX IMVI melanoma
  TGI: 32.7 µM
M14 melanoma
  TGI: > 45.5 µM
MALME-3M melanoma
  TGI: 41 µM
MCF7 breast
  TGI: > 100 µM
MDA-MB-231 breast
  TGI: 26.8 µM
MDA-MB-435
  TGI: > 100 µM
MDA-N
  TGI: > 100 µM
MOLT-4 leukemia
  TGI: > 100 µM
NCI-H226 lung
  TGI: 14.6 µM
NCI-H23 lung
  TGI: > 80.9 µM
NCI-H460 lung
  TGI: 44.5 µM
NCI-H522 lung
  TGI: 36.5 µM
NCI/ADR-RES ovarian
  TGI: > 49.4 µM
OVCAR-3 ovarian
  TGI: 37.9 µM
OVCAR-4 ovarian
  TGI: 30.5 µM
OVCAR-5 ovarian
  TGI: 93.9 µM
OVCAR-8 ovarian
  TGI: 24.4 µM
PC-3 prostate
  TGI: > 100 µM
RPMI-8226 leukemia
  TGI: > 100 µM
RXF 393 renal
  TGI: 23.7 µM
SF-268 CNS
  TGI: > 54 µM
SF-295 CNS
  TGI: 49.7 µM
SF-539 CNS
  TGI: 19.9 µM
SK-MEL-2 melanoma
  TGI: 34.1 µM
SK-MEL-28 melanoma
  TGI: > 100 µM
SK-MEL-5 melanoma
  TGI: > 61 µM
SK-OV-3 ovarian
  TGI: 19.9 µM
SN12C renal
  TGI: 71.2 µM
SNB-19 CNS
  TGI: 37.1 µM
SNB-75 CNS
  TGI: 28.8 µM
SR leukemia
  TGI: > 100 µM
SW-620 colon
  TGI: > 100 µM
T-47D breast
  TGI: 39.6 µM
TK-10 renal
  TGI: 31.7 µM
U251 CNS
  TGI: 26.1 µM
UACC-257 melanoma
  TGI: > 100 µM
UACC-62 melanoma
  TGI: > 100 µM
UO-31 renal
  TGI: 55.4 µM
